# Columns and labels:
# Format in all cases: functional
# [1] = system: Bursaphelenchus xylophilus; experiment: Nematicidal activity against Bursaphelenchus xylophilus assessed as nematode mortality at 0.2 mg/mL measured 24 hr post dose by microscopy
# [2] = system: Bursaphelenchus xylophilus; experiment: Nematicidal activity against Bursaphelenchus xylophilus assessed as nematode mortality at 0.6 mg/mL measured 24 hr post dose by microscopy
# [3] = system: Bursaphelenchus xylophilus; experiment: Nematicidal activity against Bursaphelenchus xylophilus assessed as nematode mortality at 0.4 mg/mL measured 24 hr post dose by microscopy
# [4] = system: Bursaphelenchus xylophilus; experiment: Nematicidal activity against Bursaphelenchus xylophilus assessed as nematode mortality at 0.8 mg/mL measured 24 hr post dose by microscopy
# [5] = system: Bursaphelenchus xylophilus; experiment: Nematicidal activity against Bursaphelenchus xylophilus assessed as nematode mortality at 1 mg/mL measured 24 hr post dose by microscopy
# [6] = system: Bursaphelenchus xylophilus; experiment: Nematicidal activity against Bursaphelenchus xylophilus assessed as nematode mortality at 2 mg/mL measured 24 hr post dose by microscopy
SMILES,mortality at 200 µg/mL [1] [%],mortality at 600 µg/mL [2] [%],mortality at 400 µg/mL [3] [%],mortality at 800 µg/mL [4] [%],mortality at 1000 µg/mL [5] [%],mortality at 2000 µg/mL [6] [%]
O=Cc1ccccc1 [BENZALDEHYDE],1.9,45.6,7.4,77.5,94.1,100
CCCCCCCCC [NONANE],–,–,–,–,–,1.7
OC/C=C/c1ccccc1 [CINNAMIC ALCOHOL],11.3,99.5,57.6,100,100,100
CCCCCCC=O [HEPTANAL],–,–,–,–,–,40.8
C/C=C\c1cc(OC)c(OC)cc1OC [CIS-ASARONE],15.8,96.2,47.9,100,100,100
CC(O)c1ccccc1 (stereo not given) [PHENYL ETHANOL],–,–,–,–,–,3
CC(=O)c1ccccc1 [ACETOPHENONE],–,–,–,–,–,5.3
CCCCCCCCCC=O [DECANAL],3,34.2,25.1,97.3,100,100
CCCCCCCCCCO [DECANOL],100,100,100,100,100,100
CCCCCCCCCCC=O [UNDECANAL],17.8,64.1,34.1,90.5,98.7,100
OCCCc1ccccc1 [HYDROCINNAMYL ALCOHOL],–,–,–,–,–,17.2
CCCCCCCCCCCC=O [DODECANAL],11.5,37.6,20.8,77.8,86.3,100
CCCCCCCC=O [OCTANAL],3.5,55.2,31.2,79.3,89,100
C=C/C(C)=C/CC=C(C)C [OCIMENE],–,–,–,–,–,16.2
CC(=O)OC/C=C(\C)CCC=C(C)C [GERANYL ACETATE],–,–,–,–,–,7
OCc1ccccc1 [BENZYL ALCOHOL],–,–,–,–,–,3.8
C=Cc1ccccc1 [STYRENE],–,–,–,–,–,6.7
CCCCCCCCC=O [NONANAL],1.1,59.5,3.6,83.4,95.8,100
C/C=C/c1cc(OC)c(OC)cc1OC [TRANS-ASARONE],–,–,–,–,–,12.1
CCCCCCC/C=C/CO,98,100,100,100,100,100
